Laboratory results from patent US20200170975A1 (Strongbridge Dublin Limited, priority 2018, published 2020).
Where two headings read alike, the source gives them in different places.

How the values were obtained:
BCRP = biological target: T1, BCRP (Homo sapiens, UniProt Q9UNQ0); assay: BCRP inhibition: bidirectional transport of prazosin across MDCKII-BCRP and control MDCKII cells; details: for Recovery (%) A:B / Recovery (%) B:A / % control: 120 min
T1 sequence (Q9UNQ0 1-655): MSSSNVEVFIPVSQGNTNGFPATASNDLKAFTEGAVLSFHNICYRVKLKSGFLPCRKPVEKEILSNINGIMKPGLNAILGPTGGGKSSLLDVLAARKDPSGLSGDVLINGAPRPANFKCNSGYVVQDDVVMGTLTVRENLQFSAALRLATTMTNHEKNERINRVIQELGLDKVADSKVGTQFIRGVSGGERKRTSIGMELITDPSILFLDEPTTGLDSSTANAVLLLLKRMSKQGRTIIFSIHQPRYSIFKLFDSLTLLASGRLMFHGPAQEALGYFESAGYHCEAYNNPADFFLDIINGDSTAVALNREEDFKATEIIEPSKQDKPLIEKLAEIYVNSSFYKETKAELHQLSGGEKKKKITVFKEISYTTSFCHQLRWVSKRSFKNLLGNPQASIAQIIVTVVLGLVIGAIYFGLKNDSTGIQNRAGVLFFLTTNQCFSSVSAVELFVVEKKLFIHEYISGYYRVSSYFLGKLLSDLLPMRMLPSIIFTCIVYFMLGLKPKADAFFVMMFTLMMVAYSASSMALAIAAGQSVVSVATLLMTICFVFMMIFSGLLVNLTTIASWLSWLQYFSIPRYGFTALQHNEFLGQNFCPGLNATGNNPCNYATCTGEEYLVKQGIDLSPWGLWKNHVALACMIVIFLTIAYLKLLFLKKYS
Description: MDCKII P-gp, MDCKII BCRP and control MDCKII cells were purchased from the Netherlands Cancer Institute.

OAT2 = biological target: T2, OAT2 (Homo sapiens, UniProt Q9Y694); assay: OAT2 inhibition: accumulation of [3H]-PGE2 in S2 cells; type: in vitro ADME
T2 construct: expressed in transfected cells; host or cells: S2 cells
T2 sequence (Q9Y694 1-548): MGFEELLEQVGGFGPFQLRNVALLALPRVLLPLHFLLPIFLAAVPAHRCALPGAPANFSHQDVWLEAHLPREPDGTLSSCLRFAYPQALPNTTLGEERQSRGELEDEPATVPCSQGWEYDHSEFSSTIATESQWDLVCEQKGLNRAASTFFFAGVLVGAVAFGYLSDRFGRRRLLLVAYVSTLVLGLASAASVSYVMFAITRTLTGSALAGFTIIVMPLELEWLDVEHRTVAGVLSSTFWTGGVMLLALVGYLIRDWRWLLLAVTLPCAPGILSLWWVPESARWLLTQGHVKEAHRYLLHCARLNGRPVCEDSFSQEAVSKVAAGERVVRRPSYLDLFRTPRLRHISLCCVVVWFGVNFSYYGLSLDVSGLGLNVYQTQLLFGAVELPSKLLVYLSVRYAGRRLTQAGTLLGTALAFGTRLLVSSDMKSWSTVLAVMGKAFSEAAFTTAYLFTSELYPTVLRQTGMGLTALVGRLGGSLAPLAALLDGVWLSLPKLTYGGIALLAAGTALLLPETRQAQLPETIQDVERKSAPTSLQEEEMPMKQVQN
Procedure: (§1) Schneider 2 (S2) cells are a commonly used Drosophila melanogaster cell lines from a primary culture of late stage (20-24 hours old) embryos from a macrophage-like lineage. S2 cells are used to express heterologous proteins, to produce proteins on a large scale, and to easily and transiently transfect with several plasmids at once to study protein interactions.
(§2) [^14C]-Metformin (1 mM) was provided as a solid and was prepared in Hank's balanced salt solution (HBSS).

OAT4 = biological target: T3, OAT4 (Homo sapiens, UniProt Q9NSA0); assay: OAT4 inhibition: accumulation of [3H]-estrone-3-sulfate in S2 cells; type: in vitro ADME
T3 construct: expressed in transfected cells; host or cells: S2 cells
T3 sequence (Q9NSA0 1-550): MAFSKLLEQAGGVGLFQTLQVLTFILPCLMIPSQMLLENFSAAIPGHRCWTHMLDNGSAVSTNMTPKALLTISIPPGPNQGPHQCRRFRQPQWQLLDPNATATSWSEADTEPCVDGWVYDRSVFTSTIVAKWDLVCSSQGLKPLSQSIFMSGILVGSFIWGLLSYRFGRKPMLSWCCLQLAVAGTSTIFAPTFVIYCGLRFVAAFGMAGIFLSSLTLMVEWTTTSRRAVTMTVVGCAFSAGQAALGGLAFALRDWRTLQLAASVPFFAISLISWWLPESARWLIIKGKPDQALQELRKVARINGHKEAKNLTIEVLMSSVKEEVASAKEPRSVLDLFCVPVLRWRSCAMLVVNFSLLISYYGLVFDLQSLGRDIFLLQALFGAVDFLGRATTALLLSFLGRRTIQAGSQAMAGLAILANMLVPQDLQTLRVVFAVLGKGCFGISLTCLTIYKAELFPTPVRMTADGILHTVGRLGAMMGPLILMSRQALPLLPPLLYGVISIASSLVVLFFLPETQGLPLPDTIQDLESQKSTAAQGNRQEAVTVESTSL
Procedure: as §1, §2

P-gp [1] = biological target: T4, P-gp (Homo sapiens, UniProt P08183)
T4 sequence (P08183 whole entry): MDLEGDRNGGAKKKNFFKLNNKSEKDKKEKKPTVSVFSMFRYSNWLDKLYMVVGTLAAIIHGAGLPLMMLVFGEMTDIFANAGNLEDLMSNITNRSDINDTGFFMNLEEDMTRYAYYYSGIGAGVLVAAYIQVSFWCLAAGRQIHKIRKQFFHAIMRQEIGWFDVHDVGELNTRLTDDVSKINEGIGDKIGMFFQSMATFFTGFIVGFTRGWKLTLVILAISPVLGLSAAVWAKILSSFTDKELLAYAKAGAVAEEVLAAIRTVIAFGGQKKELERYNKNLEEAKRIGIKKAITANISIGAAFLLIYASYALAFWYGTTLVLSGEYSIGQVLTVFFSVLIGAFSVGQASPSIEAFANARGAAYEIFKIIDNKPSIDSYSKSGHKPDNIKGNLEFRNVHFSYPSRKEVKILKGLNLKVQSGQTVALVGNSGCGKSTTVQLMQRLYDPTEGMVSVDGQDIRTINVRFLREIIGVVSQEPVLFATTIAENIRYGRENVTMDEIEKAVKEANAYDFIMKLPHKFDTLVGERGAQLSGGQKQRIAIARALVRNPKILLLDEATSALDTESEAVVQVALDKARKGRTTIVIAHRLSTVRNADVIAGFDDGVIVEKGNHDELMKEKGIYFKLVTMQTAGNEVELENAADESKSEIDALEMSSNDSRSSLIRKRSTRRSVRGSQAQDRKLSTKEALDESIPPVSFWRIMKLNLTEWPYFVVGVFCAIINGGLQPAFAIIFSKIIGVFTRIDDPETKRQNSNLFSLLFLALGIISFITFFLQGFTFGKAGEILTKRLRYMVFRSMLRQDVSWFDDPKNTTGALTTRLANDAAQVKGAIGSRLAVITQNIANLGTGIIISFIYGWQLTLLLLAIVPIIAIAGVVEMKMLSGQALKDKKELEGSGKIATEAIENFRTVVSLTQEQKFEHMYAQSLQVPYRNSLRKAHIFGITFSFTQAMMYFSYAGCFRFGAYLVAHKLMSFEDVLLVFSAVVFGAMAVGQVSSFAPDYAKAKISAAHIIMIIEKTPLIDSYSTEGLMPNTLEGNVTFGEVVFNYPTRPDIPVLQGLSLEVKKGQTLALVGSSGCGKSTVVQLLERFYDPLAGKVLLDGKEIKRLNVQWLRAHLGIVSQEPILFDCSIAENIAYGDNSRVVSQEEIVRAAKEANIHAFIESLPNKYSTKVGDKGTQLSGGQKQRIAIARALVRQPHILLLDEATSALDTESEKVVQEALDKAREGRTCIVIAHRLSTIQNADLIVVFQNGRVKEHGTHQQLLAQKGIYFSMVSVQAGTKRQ

P-gp [2] = biological target: T4, P-gp; details: 120 min
[3] = cited from earlier work

**Q.** With `NS(=O)(=O)c1cc(Cl)c(Cl)c(S(N)(=O)=O)c1` [Dichlorphenamide, 4,5-dichloro-1,3-benzenedisulfonamide] as the compound, how does the IC50 (BCRP) read?
**A.** Its IC50 is over 1000 µM.

**Q.** And the “Recovery (%) A:B” value (BCRP; dog, MDCK, 1000 μM)?
**A.** The value was 84.7%.

**Q.** What about the “Recovery (%) B:A” value (BCRP; dog, MDCK, 1000 μM) of the same compound?
**A.** The value was 77.0%.

**Q.** What about the “% control” value (BCRP; human, 3 μM) of the same compound?
**A.** Its value is 124%.

**Q.** And the “% control” value (BCRP; human, 10 μM)?
**A.** Its value is 91.4%.

**Q.** What about the “% control” value (BCRP; human, 30 μM) of the same compound?
**A.** Its value is 83.3%.

**Q.** And the “% control” value (BCRP; human, 100 μM)?
**A.** Its value is 91.2%.

**Q.** What about the “% control” value (BCRP; human, 300 μM) of the same compound?
**A.** The value was 91.9%.

**Q.** What about the “% control” value (BCRP; human, 1000 μM) of the same compound?
**A.** The value was 60.0%.

**Q.** And the “Recovery (%) A:B” value (BCRP; human, 1000 μM)?
**A.** The value was 93.0%.

**Q.** And the “Recovery (%) B:A” value (BCRP; human, 1000 μM)?
**A.** Its value is 83.7%.

**Q.** And the IC50 (OAT2)?
**A.** Its IC50 is over 1000 µM.

**Q.** And the IC50 (OAT4)?
**A.** Its IC50 is over 1000 µM.

**Q.** What about the IC50 (P-gp [1]) of the same compound?
**A.** Its IC50 is over 1000 µM.

**Q.** What about the “% control” value (P-gp [2]; 3 μM) of the same compound?
**A.** The value was 74.0%.

**Q.** What about the “% control” value (P-gp [2]; 10 μM) of the same compound?
**A.** The value was 98.2%.

**Q.** And the “% control” value (P-gp [2]; 30 μM)?
**A.** Its value is 89.8%.

**Q.** What about the “% control” value (P-gp [2]; 100 μM) of the same compound?
**A.** Its value is 79.2%.

**Q.** And the “% control” value (P-gp [2]; 300 μM)?
**A.** The value was 275%.

**Q.** And the “% control” value (P-gp [2]; 1000 μM)?
**A.** The value was 127%.

**Q.** What about the “solubility in dilute solutions of sodium carbonate and sodium hydroxide” value ([3]; dilute solutions of sodium carbonate and sodium hydroxide) of the same compound?
**A.** Its value is “soluble”.

**Q.** And the “stability of dilute alkaline solutions” value ([3]; room temperature)?
**A.** The value was “stable”.

**Q.** What about the solubility in water ([3]; water) of the same compound?
**A.** Its solubility in water is “very slightly soluble”.
